Values after ≈ are worked out from the molar mass of the structure shown. Active and inactive are the calls of the source. The calls are words filed in the database; no cut-off is given here.
Experiments:
Escherichia coli [1] = assay: Antibacterial activity against Escherichia coli ATCC 25922 incubated in dark for 30 mins followed by exposure to light fluences at 650 nm and 6 J/cm2 and then incubated overnight measured after 24 hrs; format: functional; conditions: ATCC 25922, light or radiation study
Staphylococcus aureus [2] = assay: Bactericidal activity against methicillin-resistant Staphylococcus aureus incubated in dark for 30 mins followed by exposure to light fluences at 650 nm and 6 J/cm2 and then incubated overnight followed by further incubation on LB agar plates for another 24 hrs; format: functional; conditions: light or radiation study
[3] = Octanol water partition coefficient, log P of the compound by reverse-phase thin-layer chromatography; format: physicochemical
Escherichia coli [4] = assay: Antibacterial activity against Escherichia coli ATCC 25922 incubated in dark for 30 mins and grown for 24 hrs followed by further incubation on LB agar plates for another 24 hrs; format: functional
Pseudomonas aeruginosa [5] = assay: Antibacterial activity against Pseudomonas aeruginosa ATCC 27853 incubated in dark for 30 mins and grown for 24 hrs followed by further incubation on LB agar plates for another 24 hrs; format: functional
Staphylococcus aureus [6] = assay: Antibacterial activity against methicillin-resistant Staphylococcus aureus incubated in dark for 30 mins and grown for 24 hrs followed by further incubation on LB agar plates for another 24 hrs; format: functional
Pseudomonas aeruginosa [7] = assay: Antibacterial activity against Pseudomonas aeruginosa ATCC 27853 incubated in dark for 30 mins measured after 24 hrs; format: functional
Staphylococcus aureus [8] = assay: Antibacterial activity against methicillin-resistant Staphylococcus aureus incubated in dark for 30 mins followed by exposure to light fluences at 650 nm and 6 J/cm2 and then incubated overnight measured after 24 hrs; format: functional; conditions: light or radiation study
Pseudomonas aeruginosa [9] = assay: Antibacterial activity against Pseudomonas aeruginosa ATCC 27853 incubated in dark for 30 mins followed by exposure to light fluences at 650 nm and 6 J/cm2 and then incubated overnight measured after 24 hrs; format: functional; conditions: ATCC 27853, light or radiation study
Escherichia coli [10] = assay: Antibacterial activity against Escherichia coli ATCC 25922 incubated in dark for 30 mins measured after 24 hrs; format: functional
[11] = Singlet oxygen generation of the compound exposed to 4.2 mW/cm2 light energy density assessed as singlet oxygen quantum yield measured at 410 nm in 10 seconds intervals of irradiation at 0.2 uM by DPBF scavenger based assay
Pseudomonas aeruginosa [12] = assay: Bactericidal activity against Pseudomonas aeruginosa ATCC 27853 incubated in dark for 30 mins followed by exposure to light fluences at 650 nm and 6 J/cm2 and then incubated overnight followed by further incubation on LB agar plates for another 24 hrs; format: functional; conditions: ATCC 27853, light or radiation study
Staphylococcus aureus [13] = assay: Antibacterial activity against methicillin-resistant Staphylococcus aureus incubated in dark for 30 mins measured after 24 hrs; format: functional
[14] = Photostability at 2 x 10^-5 mol/L exposed to 4.2 mW/cm2 light energy density assessed as change in absorption spectra after 30 mins post irradiation; format: physicochemical; conditions: 0.5 h, 20 µM
Escherichia coli [15] = assay: Bactericidal activity against Escherichia coli ATCC 25922 incubated in dark for 30 mins followed by exposure to light fluences at 650 nm and 6 J/cm2 and then incubated overnight followed by further incubation on LB agar plates for another 24 hrs; format: functional; conditions: ATCC 25922, light or radiation study
Escherichia coli [16] = assay: Antibacterial activity against Escherichia coli ATCC 25922 at 0.49 uM to 7.8 uM incubated in dark for 30 mins followed by exposure to light fluences at 650 nm and 6 J/cm2 and then incubated overnight measured after 24 hrs; format: functional, organism-based
Pseudomonas aeruginosa [17] = assay: Antibacterial activity against Pseudomonas aeruginosa ATCC 27853 at 0.49 uM to 7.8 uM incubated in dark for 30 mins followed by exposure to light fluences at 650 nm and 6 J/cm2 and then incubated overnight measured after 24 hrs; format: functional, organism-based
Escherichia coli [18] = assay: Antibacterial activity against Escherichia coli ATCC 25922 at 3.91 uM to 62.50 uM incubated in dark for 30 mins followed by exposure to light fluences at 650 nm and 6 J/cm2 and then incubated overnight measured after 24 hrs; format: functional, organism-based
Staphylococcus aureus [19] = assay: Antibacterial activity against methicillin-resistant Staphylococcus aureus at 0.49 uM to 7.8 uM incubated in dark for 30 mins followed by exposure to light fluences at 650 nm and 6 J/cm2 and then incubated overnight measured after 24 hrs; format: functional, organism-based
Pseudomonas aeruginosa [20] = assay: Antibacterial activity against Pseudomonas aeruginosa ATCC 27853 at 3.91 uM to 62.50 uM incubated in dark for 30 mins followed by exposure to light fluences at 650 nm and 6 J/cm2 and then incubated overnight measured after 24 hrs; format: functional, organism-based

Compound	MIC (Escherichia coli [1])	MBC (Staphylococcus aureus [2])	logP [3]	MBC (Escherichia coli [4])	MBC (Pseudomonas aeruginosa [5])	MBC (Staphylococcus aureus [6])	MIC (Pseudomonas aeruginosa [7])	MIC (Staphylococcus aureus [8])	MIC (Pseudomonas aeruginosa [9])	MIC (Escherichia coli [10])	Activity [11]	MBC (Pseudomonas aeruginosa [12])	MIC (Staphylococcus aureus [13])	Activity [14]	MBC (Escherichia coli [15])	Activity (Escherichia coli [16])	Activity (Pseudomonas aeruginosa [17])	Activity (Escherichia coli [18])	Activity (Staphylococcus aureus [19])	Activity (Pseudomonas aeruginosa [20])
NCCCC[C@H](N)C(=O)Nc1ccc(-c2c3nc(c(-c4ccccc4)c4ccc([nH]4)c(-c4ccc(N)cc4)c4nc(c(-c5ccccc5)c5ccc2[nH]5)C=C4)C=C3)cc1	62.5 µM (≈ 48.3 µg/mL)	250 µM (≈ 193 µg/mL)	1.46	125 µM (≈ 96.6 µg/mL)	250 µM (≈ 193 µg/mL)	250 µM (≈ 193 µg/mL)	125 µM (≈ 96.6 µg/mL)	62.5 µM (≈ 48.3 µg/mL)	62.5 µM (≈ 48.3 µg/mL)	62.5 µM (≈ 48.3 µg/mL)	0.27	125 µM (≈ 96.6 µg/mL)	125 µM (≈ 96.6 µg/mL)	< 20%	125 µM (≈ 96.6 µg/mL)					
N=C(N)NCCC[C@H](N)C(=O)Nc1ccc(-c2c3nc(c(-c4ccccc4)c4ccc([nH]4)c(-c4ccccc4)c4nc(c(-c5ccccc5)c5ccc2[nH]5)C=C4)C=C3)cc1	62.5 µM (≈ 49.1 µg/mL)	125 µM (≈ 98.2 µg/mL)	1.45	125 µM (≈ 98.2 µg/mL)	250 µM (≈ 196 µg/mL)	250 µM (≈ 196 µg/mL)	125 µM (≈ 98.2 µg/mL)	62.5 µM (≈ 49.1 µg/mL)	62.5 µM (≈ 49.1 µg/mL)	62.5 µM (≈ 49.1 µg/mL)	0.71	125 µM (≈ 98.2 µg/mL)	125 µM (≈ 98.2 µg/mL)	< 20%	125 µM (≈ 98.2 µg/mL)	inactive	inactive	inactive	inactive	inactive
Nc1ccc(-c2c3nc(c(-c4ccc(N)cc4)c4ccc([nH]4)c(-c4ccc(NC(=O)[C@@H](N)Cc5c[nH]cn5)cc4)c4nc(c(-c5ccc(N)cc5)c5ccc2[nH]5)C=C4)C=C3)cc1	62.5 µM (≈ 50.7 µg/mL)	250 µM (≈ 203 µg/mL)	1.53	250 µM (≈ 203 µg/mL)	250 µM (≈ 203 µg/mL)	250 µM (≈ 203 µg/mL)	62.5 µM (≈ 50.7 µg/mL)	62.5 µM (≈ 50.7 µg/mL)	62.5 µM (≈ 50.7 µg/mL)	62.5 µM (≈ 50.7 µg/mL)	0.2	250 µM (≈ 203 µg/mL)	62.5 µM (≈ 50.7 µg/mL)	< 20%	250 µM (≈ 203 µg/mL)	inactive	inactive	inactive	inactive	inactive
N[C@@H](Cc1c[nH]cn1)C(=O)Nc1ccc(-c2c3nc(c(-c4ccccc4)c4ccc([nH]4)c(-c4ccccc4)c4nc(c(-c5ccccc5)c5ccc2[nH]5)C=C4)C=C3)cc1	62.5 µM (≈ 47.9 µg/mL)	250 µM (≈ 192 µg/mL)	1.6	250 µM (≈ 192 µg/mL)	250 µM (≈ 192 µg/mL)	500 µM (≈ 383 µg/mL)	125 µM (≈ 95.9 µg/mL)	125 µM (≈ 95.9 µg/mL)	62.5 µM (≈ 47.9 µg/mL)	125 µM (≈ 95.9 µg/mL)	0.56	125 µM (≈ 95.9 µg/mL)	125 µM (≈ 95.9 µg/mL)	< 20%	125 µM (≈ 95.9 µg/mL)	inactive	inactive	inactive	inactive	inactive
NCCCC[C@H](N)C(=O)Nc1ccc(-c2c3nc(c(-c4ccc(N)cc4)c4ccc([nH]4)c(-c4ccc(N)cc4)c4nc(c(-c5ccc(N)cc5)c5ccc2[nH]5)C=C4)C=C3)cc1	250 µM (≈ 201 µg/mL)	500 µM (≈ 401 µg/mL)	1.4	500 µM (≈ 401 µg/mL)	> 500 µM	> 500 µM	250 µM (≈ 201 µg/mL)	250 µM (≈ 201 µg/mL)	500 µM (≈ 401 µg/mL)	250 µM (≈ 201 µg/mL)	0.17	> 500 µM	250 µM (≈ 201 µg/mL)	< 20%	500 µM (≈ 401 µg/mL)					
C1=Cc2nc1c(-c1ccccc1)c1ccc([nH]1)c(-c1ccccc1)c1nc(c(-c3ccccc3)c3ccc([nH]3)c2-c2ccccc2)C=C1											0.64									
Nc1ccc(-c2c3nc(c(-c4ccccc4)c4ccc([nH]4)c(-c4ccc(N)cc4)c4nc(c(-c5ccccc5)c5ccc2[nH]5)C=C4)C=C3)cc1	125 µM (≈ 80.6 µg/mL)	125 µM (≈ 80.6 µg/mL)		> 500 µM	250 µM (≈ 161 µg/mL)	125 µM (≈ 80.6 µg/mL)	125 µM (≈ 80.6 µg/mL)	62.5 µM (≈ 40.3 µg/mL)	125 µM (≈ 80.6 µg/mL)	> 500 µM		250 µM (≈ 161 µg/mL)	62.5 µM (≈ 40.3 µg/mL)	< 20%	500 µM (≈ 322 µg/mL)	inactive	inactive	inactive	inactive	inactive
Nc1ccc(-c2c3nc(c(-c4ccc(N)cc4)c4ccc([nH]4)c(-c4ccccc4)c4nc(c(-c5ccccc5)c5ccc2[nH]5)C=C4)C=C3)cc1	62.5 µM (≈ 40.3 µg/mL)	250 µM (≈ 161 µg/mL)		250 µM (≈ 161 µg/mL)	250 µM (≈ 161 µg/mL)	500 µM (≈ 322 µg/mL)	125 µM (≈ 80.6 µg/mL)	125 µM (≈ 80.6 µg/mL)	62.5 µM (≈ 40.3 µg/mL)	125 µM (≈ 80.6 µg/mL)		125 µM (≈ 80.6 µg/mL)	125 µM (≈ 80.6 µg/mL)	< 20%	125 µM (≈ 80.6 µg/mL)	inactive	inactive	inactive	inactive	inactive
Nc1ccc(-c2c3nc(c(-c4ccc(N)cc4)c4ccc([nH]4)c(-c4ccc(N)cc4)c4nc(c(-c5ccc(N)cc5)c5ccc2[nH]5)C=C4)C=C3)cc1	125 µM (≈ 84.4 µg/mL)	125 µM (≈ 84.4 µg/mL)		250 µM (≈ 169 µg/mL)	250 µM (≈ 169 µg/mL)	500 µM (≈ 337 µg/mL)	125 µM (≈ 84.4 µg/mL)	62.5 µM (≈ 42.2 µg/mL)	125 µM (≈ 84.4 µg/mL)	125 µM (≈ 84.4 µg/mL)		250 µM (≈ 169 µg/mL)	125 µM (≈ 84.4 µg/mL)		250 µM (≈ 169 µg/mL)					
Nc1ccc(-c2c3nc(c(-c4ccccc4)c4ccc([nH]4)c(-c4ccccc4)c4nc(c(-c5ccccc5)c5ccc2[nH]5)C=C4)C=C3)cc1	62.5 µM (≈ 39.4 µg/mL)	500 µM (≈ 315 µg/mL)		500 µM (≈ 315 µg/mL)	250 µM (≈ 157 µg/mL)	500 µM (≈ 315 µg/mL)	125 µM (≈ 78.7 µg/mL)	125 µM (≈ 78.7 µg/mL)	62.5 µM (≈ 39.4 µg/mL)	125 µM (≈ 78.7 µg/mL)		125 µM (≈ 78.7 µg/mL)	125 µM (≈ 78.7 µg/mL)	< 20%	125 µM (≈ 78.7 µg/mL)	inactive	inactive	inactive	inactive	inactive
N=C(N)NCCC[C@H](N)C(=O)Nc1ccc(-c2c3nc(c(-c4ccc(N)cc4)c4ccc([nH]4)c(-c4ccc(N)cc4)c4nc(c(-c5ccc(N)cc5)c5ccc2[nH]5)C=C4)C=C3)cc1	62.5 µM (≈ 51.9 µg/mL)	500 µM (≈ 416 µg/mL)	1.25	125 µM (≈ 104 µg/mL)	250 µM (≈ 208 µg/mL)	500 µM (≈ 416 µg/mL)	62.5 µM (≈ 51.9 µg/mL)	62.5 µM (≈ 51.9 µg/mL)	62.5 µM (≈ 51.9 µg/mL)	62.5 µM (≈ 51.9 µg/mL)	0.47	250 µM (≈ 208 µg/mL)	62.5 µM (≈ 51.9 µg/mL)	< 20%	125 µM (≈ 104 µg/mL)	inactive	inactive	inactive	inactive	inactive
NCCCC[C@H](N)C(=O)Nc1ccc(-c2c3nc(c(-c4ccc(N)cc4)c4ccc([nH]4)c(-c4ccccc4)c4nc(c(-c5ccccc5)c5ccc2[nH]5)C=C4)C=C3)cc1	62.5 µM (≈ 48.3 µg/mL)	125 µM (≈ 96.6 µg/mL)	1.47	125 µM (≈ 96.6 µg/mL)	250 µM (≈ 193 µg/mL)	250 µM (≈ 193 µg/mL)	125 µM (≈ 96.6 µg/mL)	62.5 µM (≈ 48.3 µg/mL)	62.5 µM (≈ 48.3 µg/mL)	62.5 µM (≈ 48.3 µg/mL)	0.24	125 µM (≈ 96.6 µg/mL)	125 µM (≈ 96.6 µg/mL)	< 20%	125 µM (≈ 96.6 µg/mL)					

Reference: ChEMBL document CHEMBL3407491, “Synthesis, characterization and in vitro photodynamic antimicrobial activity of basic amino acid-porphyrin conjugates” (Eur J Med Chem, 2015)
